In US20240285808A1, “MOLECULAR PROBES FOR IN VIVO DETECTION OF ALDEHYDES” (The General Hospital Corporation, priority 2021, published 2024):
“And” between values parts separate entries of the source, which are not always exact repeats. Equal entries are not always repeated. “Also recorded” adds a separate entry of the source.

Legend:
[1] = tested on: bleomycin-injured mice (pulmonary fibrosis); test: EGCG treatment of bleomycin-injured mice monitored with Gd-9 MRI; type: in vivo, mouse
Experimental: Gd-9 is a Gd-DOTA derivative with two hydrazine arms synthesized by amide coupling of two tBu-piperazin-1-ylcarbamate groups to 1,4,7,10-tetraazacyclododecane-1,4-bis(tBu-acetate)-4,10-bis(glutaric acid 1-tBu ester), followed by acid deprotection and gadolinium complexation. C57Bl/6 adult male mice at 8 weeks of age received a single intratracheal dose of bleomycin, 1 U/kg body weight (50 μL total volume) as previously described. Pair-wise imaging study of GdCHyd and Gd-9 was carried out in mice at day 14 post bleomycin injury on a 4.7 T MRI with a dose of 100 μmol/kg of each probe. For the treatment study, mice were imaged first at day 10 post bleomycin injury, then treated daily with oral gavage of either epigallocatechin gallate (EGCG, 100 mg/kg) or PBS (vehicle) for 11 days. At day 21 post bleomycin injury, the animals were imaged again. MRI consisted of T1-weighted UTE (TR/TE/flip angle=4 ms/0.011 ms/15°) images acquired prior to and up to 30 minutes following intravenous administration of Gd-9 ([…]). Following the second imaging session, animals were euthanized (60 minutes post injection), and lung tissues were removed for further analysis.
The dual hydrazine probe Gd-9 was first compared to GdCHyd in a head-to head comparison in vivo. Mice were imaged 14 days after bleomycin injury first with Gd-CHyd and then 4 h later with Gd-9. […] Gd-9 was nexted used to monitor response to EGCG treatment in bleomycin-injured mice. Mice were imaged at 10 days after bleomycin injury and then the mice were treated with EGCG (100 mg/kg) or PBS (vehicle) for 11 days, and then the mice were imaged again (FIG. 14).

[2] = Reaction rates with 2-formylpyridine measured by HPLC-ICP-MS (Method A); type: physicochemical; conditions: Method a: 2-formylpyridine 1000 μM, probe 25 μM, pH 7.40 PBS
Experimental: Quantitative Measurement of Reaction Rates with Aldehydes: Method A: Reaction Rates of Compounds with 2-Formylpyridine Measured by HPLC-ICP-MS
Reactivity of aldehyde-binding probes were assessed in pH 7.40 phosphate-buffered saline under pseudo-first order conditions with 2-formylpyridine concentration of 1000 μM and probes at 25 μM. Concentrations of unreacted starting material and condensation products were determined at 12 min time intervals based on their relative integrations. The values were fit to a standard first order rate constant linear equation and the rate constant was extracted from the slope.

[3] = Relaxivity measurements in PBS; type: physicochemical; conditions: 1.4 T, 37° C.
Experimental: (§1) BSA-ALD (10 mg/mL) or BSA (10 mg/mL) were treated for 24 hours at 37° C. with the corresponding Gd or Mn complex at a range of concentrations (0.01-0.2 mM), with a total volume of 300 μL maintained for all samples. After 24 hours, an aliquot of the solution (50 μL) was used for longitudinal (T1) relaxation measurements, recorded using a Bruker mq60 Minispec at 1.41 T and 37° C. Longitudinal (T1) relaxation times were measured via an inversion recovery experiment using 10 inversions of duration ranging between 0.05×T1 and 10×T1. Solutions (concentration range: 0.1 mM-1.0 mM) in PBS were run in parallel. To measure the relaxivity of BSA-bound species, sodium cyanoborohydride (10 mg) was added to the solution to irreversibly bind the probe to the protein. After a further 2h incubation at 37° C., protein-bound and protein-free solutions were separated by ultrafiltration. Then 200 μL PBS was added to the residue to dissolve the protein. Longitudinal (T1) relaxation times for the bounded species were measured using a Bruker mq60 Minispec at 1.41 T and 37° C. After the measurement, concentration of corresponding metal ion (Gd/Mn) in the residue and filter were both determined using an Agilent 8800 ICP-MS system. Relaxivity (r1) was determined from the slope of a plot of 1/T1 vs metal concentration for 5 concentrations.

[4] = target: bovine serum albumin (BSA) (Bos taurus, UniProt P02769); test: Relaxivity measurements with BSA; type: binding; conditions: 1.4 T, 37° C., BSA 10 mg/mL
Experimental: as §1

[5] = target: T1, BSA-ALD (oxidized bovine serum albumin containing allysine aldehyde groups) (Bos taurus, UniProt P02769); test: Relaxivity measurements with BSA-Ald; type: binding; conditions: 37° C.; for r1, +BSA-Ald / r1, Bound to BSA-Ald: 1.4 T; for r1, +BSA-Ald: BSA-Ald 10 mg/mL; for r1, Bound to BSA-Ald: protein-bound species after NaBH3CN and ultrafiltration
T1 construct: made in house; host or cells: no expression host: BSA oxidised chemically with sodium ascorbate, ferric chloride and H2O2, then desalted on PD-10
Experimental: Preparation of Allysine Containing Bovine Serum Albumin, BSA-ALD:
To a solution of bovine serum albumin (BSA) (100 mg) dissolved in phosphate buffered saline (4 mL, pH 7.4, 0.25 mM), sodium ascorbate (20 mg), ferric chloride (120 μL, 10 mM) and 20 μL H2O2 (30% w) were added. The reaction was stirred at 37° C. for 24 hours, and sodium ascorbate (20 mg) was added repeatedly every 8 hours. After the reaction, protein was purified using PD-10 Sephadex G25 desalting columns (GE Healthcare), eluted with PBS. Protein concentration was assessed using the ‘BCA Protein Assay Kit’ (Thermo Scientific). Protein carbonyl concentration was determined by ‘Protein Carbonyl Content Assay Kit’ (Sigmal-Aldrich).
(§2) Alternatively, preparation of BSA^Ald and binding of Gd^3+ probe to protein was carried out according to modified procedures. To a solution of bovine serum albumin (BSA) (100 mg) dissolved in phosphate buffered saline (4 mL, pH 7.4, 0.25 mM) was added sodium ascorbate (20 mg), ferric chloride (120 μL, 10 mM) and 20 μL H2O2 (30% w). The reaction was stirred at 37° C. for 24 h, and sodium ascorbate (20 mg) was added repeatedly every 8 h. After 24 h, the protein was purified using PD-10 Sephadex G25 desalting columns (GE Healthcare), eluted with PBS. Protein concentration was assessed using the ‘Micro BCA Protein Assay Kit’ (Thermo Scientific, 23235). Protein carbonyl concentration was determined by ‘Protein Carbonyl Content Assay Kit’ (Sigma-Aldrich, MAK094-1KT). […] The protein solutions were kept at a concentration of 20 mg/mL for further use.
as §1

[6] = target: T2, BSA-ALD (Bos taurus, UniProt P02769); test: Binding yield measurements of Gd^3+ complex with BSA^Ald (ultrafiltration, ICP-MS); set-up: species or system bovine; conditions: pH 7.4, PBS, 37° C., 12 h, ultrafiltration 5,000 Da cut-off
T2 construct: made in house; host or cells: no expression host: BSA oxidised chemically with sodium ascorbate, ferric chloride and H2O2, then desalted on PD-10
Experimental: FIG. 48. […] Binding concentration of the probes to BSA^Ald (pH 7.4, PBS, 37° C., 12 h) as determined by ICP-MS following an ultrafiltration (5,000 Da cut-off) to separate the protein-bound probe from the unbound probe. Slope gives the binding yield.
as §2

[7] = tested on: ECM proteins from fibrotic rat liver; test: Relaxivity measurements in ECM; type: binding
Experimental: Liver fibrosis was induced in male Sprague Dawley rats by ligation of the common bile duct (CD®, Charles River Labs, Wilmington, MA). Ten days after common bile duct ligation, the fibrotic liver was harvested and sequential extractions were performed using the CNMCS (Cytosol/Nucleus/Membrane/Cytoskeleton) Compartmental Protein Extraction kit (Cytomol, Union City, CA) according to manufacturer's instructions. In brief, frozen tissues (150-200 mg) were homogenized and with solvents provided in the kit to sequentially to remove: cytosolic proteins, nuclear proteins, membrane proteins, and cytoskeletal proteins, leaving a final insoluble fraction enriched for ECM proteins.
Relaxivity Measurements in ECM
The enriched ECM proteins from 800 mg of fibrotic rat liver were suspended in 1 ml PBS. The ECM protein concentration was about 10% (5 mg in a 50 μL aliquot determined by weight after lyophilization). An aliquot of the solution (50 μL) was treated for 2 h at 37° C. with the corresponding molecular probe at a range of concentrations (0.01-0.1 mM) and then longitudinal (T1) relaxation measurements was recorded using a Bruker mq60 Minispec at 1.41 T and 37° C. For the blocking experiment with N2H4, a 100 fold-excess of N2H4 referred to the concentration of molecular probe was added to the solution before the incubation. Longitudinal (T1) relaxation times were measured via an inversion recovery experiment using 10 inversions of duration ranging between 0.05×T1 and 10×T1. Relaxivity (r1) was determined from the slope of a plot of 1/T1 vs metal concentration for 4 concentrations.

[8] = Reaction rates with butyraldehyde measured by HPLC-ICP-MS (Method B); type: physicochemical; conditions: Method b: butyraldehyde 100 μM, probe 25 μM, pH 7.40
Experimental: Method B: Reaction Rates of Compounds with Butyraldehyde Measured by HPLC-ICP-MS
The reactions were conducted in pH 7.40 phosphate-buffered with butyraldehyde concentration of 100 μM and hydrazine probes at 25 μM. Concentrations of unreacted starting material and condensation products were determined at 10 min time intervals over 2 hours based on their relative integrations. The values were fit to a standard first order rate constant linear equation and the rate constant was extracted from the slope.
Reaction with Butyraldehyde Monitored by HPLC-ICP-MS
Reactions were conducted in pH 7.4 phosphate-buffered saline with butyraldehyde concentration of 100 μM and hydrazine probes at 25 μM. Concentrations of unreacted starting material and condensation products were determined based on their relative integrations at 12 min time intervals over 2 hours.

[9] = Biodistribution of manganese in healthy mice 60 minutes post-injection; type: in vivo, mouse; conditions: 0.1 mmol/kg i.v.
Text: To meet these requirements, the probes Mn-12, Mn-13 and Mn-14 were designed based on the stable Mn-1,4-DO2A chelate. […] This combination of stability, turn-on relaxivity, and low uptake in healthy liver indicate that Mn-12 is quite promising as a novel probe for liver fibrogenesis detection.

[10] = EGCG 100 mg/kg oral gavage daily for 11 days vs vehicle

T1 sequence (P02769 25-607): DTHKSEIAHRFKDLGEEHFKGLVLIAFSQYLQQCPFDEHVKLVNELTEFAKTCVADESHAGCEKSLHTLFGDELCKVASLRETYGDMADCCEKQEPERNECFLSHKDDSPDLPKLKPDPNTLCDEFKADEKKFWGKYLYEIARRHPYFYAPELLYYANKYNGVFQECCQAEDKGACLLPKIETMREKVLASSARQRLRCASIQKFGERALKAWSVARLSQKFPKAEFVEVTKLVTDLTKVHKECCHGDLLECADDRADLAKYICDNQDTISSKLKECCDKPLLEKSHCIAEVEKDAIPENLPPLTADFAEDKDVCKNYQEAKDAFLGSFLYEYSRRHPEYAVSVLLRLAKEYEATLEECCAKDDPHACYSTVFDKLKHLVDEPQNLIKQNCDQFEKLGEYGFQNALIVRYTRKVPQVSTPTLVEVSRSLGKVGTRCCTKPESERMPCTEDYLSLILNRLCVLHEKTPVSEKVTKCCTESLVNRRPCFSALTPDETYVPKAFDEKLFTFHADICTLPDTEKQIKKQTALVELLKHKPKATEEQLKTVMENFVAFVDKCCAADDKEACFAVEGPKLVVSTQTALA
Chain of bovine serum albumin (BSA) (P02769 25-607): as above
T2 sequence (P02769 25-607): as above

SMILES	k (second order rate constant) [2] [M⁻¹ s⁻¹]	r1, PBS [3] [mM⁻¹ s⁻¹]	r1, +BSA [4] [mM⁻¹ s⁻¹]	r1, +BSA-Ald [5] [mM⁻¹ s⁻¹]	r1, Bound to BSA-Ald [5]	other results
O=C(O[C@@H]1Cc2c(O)cc(O)cc2O[C@@H]1c1cc(O)c(O)c(O)c1)c1cc(O)c(O)c(O)c1 [EGCG, epigallocatechin gallate]	–	–	–	–	–	lung to muscle ΔCNR after Gd-9 injection, day 21 vs day 10 ([1]; EGCG 100 mg/kg oral gavage daily for 11 days): significantly decreased; lung allysine content [1, 10]: significantly reduced; lung hydroxyproline (total collagen) [1, 10]: reduced
NC(Cn1cccc1)C(=O)NCCOCCOCCOCCNC(=O)CN1CCN(CC(=O)[O-])CCN(CC(=O)[O-])CC1.[Ga+3] (stereo not shown) [Ga-2]	0.11	–	–	–	–	–
NN1CCN(C(=O)CCC(C(=O)[O-])N2CCN(CC(=O)[O-])CCN(CC(=O)[O-])CCN(C(CCC(=O)N3CCNCC3)C(=O)[O-])CC2)CC1.[Gd+3] (stereo not shown) [Gd-11]	–	6.2	6.2	7.6	13.7 mM⁻¹ s⁻¹ and 13.8 mM⁻¹ s⁻¹	increase of r1 in BSA^Ald compared to PBS value ([5]; 1.41 T): 23%; equilibrium binding to BSA^Ald (binding yield) [6]: 19.2%; relaxivity in ECM ([7]; PBS, pH 7.4, 2 h, 37° C., 1.41T): 6.7 mM⁻¹ s⁻¹; relaxivity in ECM with 100-fold excess of hydrazine ([7]; aldehydes blocked with N2H4): 6.1 mM⁻¹ s⁻¹
CCCCN1CCN(CCCC(=O)N2CCN(N)CC2)CCN(CC(=O)[O-])CCN(CC(=O)[O-])CC1.[Mn+2] [Mn-13]	–	1.6	1.9	2.3	6.2 mM⁻¹ s⁻¹	k (second order rate constant) [8]: 1.9 M⁻¹ s⁻¹; Mn liver levels in healthy mice [9]: high Mn liver levels; also recorded: elevated levels
NNC(=O)CCCN1CCN(CCCC(=O)NN)CCN(CC(=O)[O-])CCN(CC(=O)[O-])CC1.[Mn+2] [Mn-14]	–	1.5	1.8	2.5	7.3 mM⁻¹ s⁻¹	k (second order rate constant) [8]: 1.4 M⁻¹ s⁻¹
NN1CCN(C(=O)CCOCCOCCOCCOCCNC(=O)CN2CCN(CC(=O)[O-])CCN(CC(=O)[O-])CC2)CC1.[Ga+3] [Ga-1]	0.06	–	–	–	–	–
O=C([O-])CN1CCN(CC(=O)[O-])CCN(CC(=O)NCCOCCOCCOCCNC(=O)CN2C(=O)CSC2=S)CC1.[Ga+3] [Ga-4]	0.34	–	–	–	–	–
